Entries after “also recorded” stand apart in the source; their conditions may differ.
Columns and labels:
[1] = system: patients with anxiety disorder without somatic illness; experiment: Same phase II study: acute alterations of mind (5D-ASC) and mystical-type effects (MEQ30); format: in vivo, human
Method: Each of the four LSD/Placebo sessions lasted 12 hours from 8 AM to 8 PM. Sessions took place in a quiet room at the Ambulatory Study Center of the University Hospital Basel (Basel center) or in the private practice office of Dr. P. Gasser (Solothurn center). At the beginning of the session, current mood and mental state were discussed and a urine drug screen was taken and any AEs since the last visit were recorded. Any open questions or concerns were addressed by the investigator. The participants were advised to lie in a bed or sit comfortably on a chair. Other than going to the bathroom, the participants remained in the treatment room for the entire 12-hour experimental session and were supervised constantly up to 8-12 hours after LSD/placebo administration depending on the participant's response and as needed. The subjective effects of LSD at the dose used in this study were expected to last 8-12 hours (Gasser et al., 2014; Holze et al., 2021; Schmid et al., 2015). […] During the LSD/placebo effect, the participants were instructed to focus their awareness inward. Subjects were encouraged to wear eye shades during the first hours (or the light was dimmed) as well as to listen to music and discussions/talking much with the investigator were discouraged. Subjects were allowed to remain mostly undisturbed with brief physical contacts every two hours when heart rate and blood pressure were measured. At the end of the sessions, 10-12 hours after LSD/placebo administration, the acute subjective peak effects were retrospectively rated by the participants using the 5D-ASC, SCQ, AMRS, and VASs and the experience was discussed. Ten-twelve hours after LSD/placebo administration the participants were allowed to return to their home with company and supervision provided by the partner, a relative, or a friend. […]
The 5 dimensions of altered states of consciousness (5D-ASC) scale is a visual analog scale consisting of 94 items (Dittrich, 1998; Studerus et al., 2010). […] Each item of the scale was scored on a 0-100 mm VAS. […]

[2] = target: 5-HT2A receptor (Homo sapiens, UniProt P28223); conditions: cited from earlier work
[3] = system: 5-HT1 receptors; conditions: cited from earlier work
[4] = system: dopaminergic D1-3 receptors; conditions: cited from earlier work
[5] = system: healthy volunteers; conditions: cited from earlier work
[6] = system: amygdala reactivity; conditions: fMRI; cited from earlier work
[7] = system: healthy subjects; conditions: cited from earlier work
[8] = system: patients with life-threatening illness and related anxiety; conditions: cited from earlier work
[9] = drinking solution (water/alcohol) in dark glass vials; cited from earlier work
[10] = within-subjects, after two LSD sessions

Sequence of 5-HT2A receptor (P28223 whole entry): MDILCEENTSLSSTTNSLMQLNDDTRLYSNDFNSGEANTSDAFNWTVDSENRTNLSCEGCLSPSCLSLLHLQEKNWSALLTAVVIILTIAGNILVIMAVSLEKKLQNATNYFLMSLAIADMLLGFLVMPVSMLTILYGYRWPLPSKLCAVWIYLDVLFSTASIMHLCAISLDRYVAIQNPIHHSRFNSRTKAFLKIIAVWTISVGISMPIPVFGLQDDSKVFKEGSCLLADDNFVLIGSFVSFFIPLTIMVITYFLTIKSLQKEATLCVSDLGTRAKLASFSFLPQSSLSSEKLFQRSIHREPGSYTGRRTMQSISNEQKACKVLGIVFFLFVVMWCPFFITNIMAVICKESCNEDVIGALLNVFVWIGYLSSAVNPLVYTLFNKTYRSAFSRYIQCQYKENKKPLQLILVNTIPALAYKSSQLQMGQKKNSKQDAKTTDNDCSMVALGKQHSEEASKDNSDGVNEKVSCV

In the case of `CCN(CC)C(=O)[C@@H]1C=C2c3cccc4[nH]cc(c34)C[C@H]2N(C)C1` [LSD, lysergic acid diethylamide], the “ratings of mystical-type experiences on the MEQ30 questionnaire” value ([1]; 200 μg vs placebo, similar at first and second session) is reported as “significantly and strongly increased”, the “alterations in all scales of the 5D-ASC questionnaire” value ([1]; 200 μg, all p<0.001 vs. placebo, comparable at session 1 and 2) is reported as “significant and marked alterations” and the “acute effects (5D-ASC) compared with healthy subjects given the same dose” value ([1]; 200 μg, comparison with Holze et al., 2021) is reported as “generally greater”. For the same compound, the “activity at the 5-HT2A receptor” value [2] was “partial 5-HT2A receptor agonist; also recorded: agonists”, the “activity at 5-HT1 receptors” value [3] was “stimulates” and the “activity at dopaminergic D1-3 receptors” value [4] was “stimulates”. The “optimism and trait openness compared with placebo” value ([5]; 75 μg intravenously, at two weeks) was “increased”, the “blood pressure and heart rate” value ([5]; 40-80 μg intravenously, 10 healthy volunteers) was “slightly elevated” and the “amygdala reactivity to fearful stimuli” value [6] was “decreased”. The “duration of alterations in waking consciousness” value ([7]; 200 μg oral, 16 healthy subjects) was 12 h, the “blood pressure, heart rate, body temperature, pupil size, plasma cortisol, prolactin, oxytocin, and epinephrine” value ([7]; 200 μg oral) was “significantly increased” and the “time until adverse effects completely subsided” value ([7]; 200 μg oral) was ≤ 72 h. The “difficulty concentrating, number of subjects of 16 participants” value ([7]; 200 μg, acute AE) was 10, the “dizziness, number of subjects of 16 participants” value ([7]; 200 μg, acute AE) was 7 and the “headache, number of subjects of 16 participants” value ([7]; 200 μg, acute AE) was 9. For the same compound, the “nausea, number of subjects of 16 participants” value ([7]; 200 μg, acute AE) was 4, the “transient moderate anxiety, number of subjects of 16 participants” value ([7]; 200 μg, acute AE) was 4 and the “duration of LSD effects after administration” value ([7]; 200 μg) was “up to 12 hours”. For the same compound, the “time of peak LSD effects” value ([7]; 200 μg) was 2 h, the “STAI anxiety compared with baseline” value ([8]; 2 months after the two LSD sessions, 200 μg per os) was “significant decrease” and the “mild affect lability, share of LSD sessions” value ([8]; in vivo) was 14%. For the same compound, the “mild gait disturbance, share of LSD sessions” value ([8]; in vivo) was 32%, the “mild-to-moderate emotional distress, share of LSD sessions” value ([8]; in vivo) was 36% and the “moderate anxiety, share of LSD sessions” value ([8]; in vivo) was 23%. For the same compound, the “moderately feeling cold, share of LSD sessions” value ([8]; in vivo) was 45%, the “number of migraine attacks” value ([8]; two migraine patients) was “markedly reduced” and the “STAI state anxiety score after LSD (mean±SD)” value [8, 10] was 41.5±9.7. For the same compound, the “STAI trait anxiety score after LSD (mean±SD)” value [8, 10] was 45.3±10.3, the “STAI state anxiety score before LSD (mean±SD)” value ([8]; within-subjects, baseline) was 53.1±13.5 and the “STAI trait anxiety score before LSD (mean±SD)” value ([8]; within-subjects, baseline) was 53.3±11.3. The “decrease in STAI trait anxiety score (mean±SD)” value ([8]; within-subjects) was 8.0±7.7 points, the “reduction in STAI state anxiety score (mean±SD)” value ([8]; within-subjects) was 11.6±9.5 points and the “content-uniformity and stability of the formulation” value [9] was “stability of the formulation throughout the entire study period was documented”.

Source: patent US20220273628A1, “EFFECTS OF LYSERGIC ACID DIETHYLAMIDE (LSD) AND OF LSD ANALOGS TO ASSIST PSY[…] G[…] DISORDER OR OTHER ANXIETY NOT RELATED TO LIFE-T[…]” (Universitätsspital Basel, priority 2021, published 2022)
